In PubChem BioAssay AID330 (DTP/NCI, 2004):
Several values for one entry are separate records, joined by “and”; a condition that tells them apart may be missing. Identical values can stand only once. Inconclusive results and toxic doses are left out.

Tested on: P388 leukemia ip, CD2F1 mice, survival T/C
Experiment: NCI In Vivo Anticancer Drug Screen. Data for tumor model P388 Leukemia (intraperitoneal) in CD2F1 (CDF1) mice
Conditions: endpoint: median survival time, higher = longer survival
Method in brief: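 Mice carrying the transplanted tumor received test compound or vehicle. Survival was recorded in each group, and the value is the treated-group measurement divided by that of the vehicle-treated control group.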

With `CC1OC(=O)C(C(C)C)NC(=O)C(C(C)C)OC(=O)C(C(C)C)NC(=O)C(C)OC(=O)C(C(C)C)NC(=O)C(C(C)C)OC(=O)C(C(C)C)NC(=O)C(C)OC(=O)C(C(C)C)NC(=O)C(C(C)C)OC(=O)C(C(C)C)NC1=O` (stereo not drawn) the T/C (dose: 0.03 mg/kg/injection, schedule: Q01DX009 (ip), vehicle: other) was 113 % of control, the T/C (dose: 0.1 mg/kg/injection, schedule: Q01DX005 (ip), vehicle: DMSO) was 110 % of control and the T/C (dose: 0.1 mg/kg/injection, schedule: Q01DX005 (ip), vehicle: other) was 108 % of control. The T/C (dose: 0.12 mg/kg/injection, schedule: Q01DX009 (oral), vehicle: other) was 102 % of control, the T/C (dose: 0.2 mg/kg/injection, schedule: Q01DX005 (ip), vehicle: DMSO) was 116 % of control and the T/C (dose: 0.2 mg/kg/injection, schedule: Q01DX005 (ip), vehicle: other) was 110 % of control. The T/C (dose: 0.23 mg/kg/injection, schedule: Q01DX009 (oral), vehicle: other) was 96 % of control, the T/C (dose: 0.25 mg/kg/injection, schedule: Q01DX009 (ip), vehicle: other) was 154 % of control and the T/C (dose: 0.4 mg/kg/injection, schedule: Q01DX005 (ip), vehicle: other) was 120 % of control. For the same molecule, the T/C (dose: 0.47 mg/kg/injection, schedule: Q01DX009 (ip), vehicle: Klucel (hydroxypropylcellulose) (HPC)) was 155 % of control, the T/C (dose: 0.47 mg/kg/injection, schedule: Q01DX009 (oral), vehicle: other) was 98 % of control and the T/C (dose: 0.5 mg/kg/injection, schedule: Q01DX009 (ip), vehicle: Klucel (hydroxypropylcellulose) (HPC)) was 116 % of control. The T/C (dose: 0.5 mg/kg/injection, schedule: Q01DX009 (ip), vehicle: other) was 100 % of control, the T/C (dose: 0.62 mg/kg/injection, schedule: Q01DX009 (ip), vehicle: saline) was 111 % of control and 97 % of control and the T/C (dose: 0.94 mg/kg/injection, schedule: Q01DX009 (oral), vehicle: Klucel (hydroxypropylcellulose) (HPC)) was 103 % of control. The T/C (dose: 0.94 mg/kg/injection, schedule: Q01DX009 (oral), vehicle: other) was 93 % of control, the T/C (dose: 1.0 mg/kg/injection, schedule: Q01DX005 (ip), vehicle: Klucel (hydroxypropylcellulose) (HPC)) was 155 % of control and the T/C (dose: 1.25 mg/kg/injection, schedule: Q01DX009 (ip), vehicle: saline) was 94 % of control. The T/C (dose: 1.88 mg/kg/injection, schedule: Q01DX009 (ip), vehicle: Klucel (hydroxypropylcellulose) (HPC)) was 161 % of control, the T/C (dose: 1.88 mg/kg/injection, schedule: Q01DX009 (oral), vehicle: Klucel (hydroxypropylcellulose) (HPC)) was 108 % of control and the T/C (dose: 2.0 mg/kg/injection, schedule: Q01DX005 (ip), vehicle: Klucel (hydroxypropylcellulose) (HPC)) was 165 % of control. For the same molecule, the T/C (dose: 2.5 mg/kg/injection, schedule: Q01DX009 (ip), vehicle: saline) was 87 % of control and 94 % of control, the T/C (dose: 3.75 mg/kg/injection, schedule: Q01DX009 (oral), vehicle: Klucel (hydroxypropylcellulose) (HPC)) was 106 % of control and the T/C (dose: 4.0 mg/kg/injection, schedule: Q01DX005 (ip), vehicle: Klucel (hydroxypropylcellulose) (HPC)) was 160 % of control and 162 % of control. The T/C (dose: 5.0 mg/kg/injection, schedule: Q01DX009 (ip), vehicle: Klucel (hydroxypropylcellulose) (HPC)) was 162 % of control, the T/C (dose: 5.0 mg/kg/injection, schedule: Q01DX009 (ip), vehicle: saline with Tween-80) was 106 % of control and the T/C (dose: 5.0 mg/kg/injection, schedule: Q01DX009 (ip), vehicle: saline) was 87 % of control and 93 % of control. The T/C (dose: 7.5 mg/kg/injection, schedule: Q01DX009 (ip), vehicle: Klucel (hydroxypropylcellulose) (HPC)) was 88 % of control, the T/C (dose: 7.5 mg/kg/injection, schedule: Q01DX009 (oral), vehicle: Klucel (hydroxypropylcellulose) (HPC)) was 88 % of control and the T/C (dose: 8.0 mg/kg/injection, schedule: Q01DX005 (ip), vehicle: Klucel (hydroxypropylcellulose) (HPC)) was 159 % of control and 162 % of control. The T/C (dose: 10.0 mg/kg/injection, schedule: Q01DX009 (ip), vehicle: Klucel (hydroxypropylcellulose) (HPC)) was 97 % of control, the T/C (dose: 10.0 mg/kg/injection, schedule: Q04DX003 (ip), vehicle: saline with Tween-80) was 151 % of control and 167 % of control and the T/C (dose: 16.0 mg/kg/injection, schedule: Q01DX005 (ip), vehicle: Klucel (hydroxypropylcellulose) (HPC)) was 163 % of control. The T/C (dose: 20.0 mg/kg/injection, schedule: Q04DX003 (ip), vehicle: saline with Tween-80) was 108 % of control, the T/C (dose: 6.25 micrograms/kg/injection, schedule: Q03HX008 (ip), vehicle: other) was 101 % of control and the T/C (dose: 6.25 micrograms/kg/injection, schedule: Q03HX020 (ip), vehicle: other) was 118 % of control. The T/C (dose: 6.25 micrograms/kg/injection, schedule: Q12HX004 (iv), vehicle: other) was 101 % of control, the T/C (dose: 6.25 micrograms/kg/injection, schedule: Q12HX010 (ip), vehicle: other) was 111 % of control and the T/C (dose: 6.25 micrograms/kg/injection, schedule: Q12HX010 (iv), vehicle: other) was 102 % of control. For the same molecule, the T/C (dose: 12.5 micrograms/kg/injection, schedule: Q01DX001 (iv), vehicle: other) was 97 % of control, the T/C (dose: 12.5 micrograms/kg/injection, schedule: Q01DX005 (ip), vehicle: other) was 103 % of control and 107 % of control and the T/C (dose: 12.5 micrograms/kg/injection, schedule: Q01DX005 (iv), vehicle: other) was 99 % of control and 100 % of control. For the same molecule, the T/C (dose: 12.5 micrograms/kg/injection, schedule: Q03HX008 (ip), vehicle: other) was 118 % of control, the T/C (dose: 12.5 micrograms/kg/injection, schedule: Q03HX020 (ip), vehicle: other) was 119 % of control and the T/C (dose: 12.5 micrograms/kg/injection, schedule: Q04DX002 (iv), vehicle: other) was 101 % of control. For the same molecule, the T/C (dose: 12.5 micrograms/kg/injection, schedule: Q12HX004 (ip), vehicle: other) was 110 % of control, the T/C (dose: 12.5 micrograms/kg/injection, schedule: Q12HX004 (iv), vehicle: other) was 103 % of control and the T/C (dose: 12.5 micrograms/kg/injection, schedule: Q12HX010 (ip), vehicle: other) was 123 % of control. The T/C (dose: 12.5 micrograms/kg/injection, schedule: Q12HX010 (iv), vehicle: other) was 103 % of control, the T/C (dose: 25.0 micrograms/kg/injection, schedule: Q01DX001 (ip), vehicle: other) was 98 % of control and the T/C (dose: 25.0 micrograms/kg/injection, schedule: Q01DX001 (iv), vehicle: other) was 103 % of control. The T/C (dose: 25.0 micrograms/kg/injection, schedule: Q01DX005 (ip), vehicle: other) was 115 % of control and 116 % of control, the T/C (dose: 25.0 micrograms/kg/injection, schedule: Q01DX005 (iv), vehicle: other) was 99 % of control and 100 % of control and the T/C (dose: 25.0 micrograms/kg/injection, schedule: Q03HX008 (ip), vehicle: other) was 113 % of control. The T/C (dose: 25.0 micrograms/kg/injection, schedule: Q03HX020 (ip), vehicle: other) was 124 % of control, the T/C (dose: 25.0 micrograms/kg/injection, schedule: Q04DX002 (ip), vehicle: other) was 102 % of control and the T/C (dose: 25.0 micrograms/kg/injection, schedule: Q04DX002 (iv), vehicle: other) was 101 % of control. The T/C (dose: 25.0 micrograms/kg/injection, schedule: Q12HX004 (ip), vehicle: other) was 100 % of control, the T/C (dose: 25.0 micrograms/kg/injection, schedule: Q12HX004 (iv), vehicle: other) was 98 % of control and the T/C (dose: 25.0 micrograms/kg/injection, schedule: Q12HX010 (ip), vehicle: other) was 121 % of control. The T/C (dose: 25.0 micrograms/kg/injection, schedule: Q12HX010 (iv), vehicle: other) was 103 % of control, the T/C (dose: 50.0 micrograms/kg/injection, schedule: Q01DX001 (ip), vehicle: other) was 100 % of control and the T/C (dose: 50.0 micrograms/kg/injection, schedule: Q01DX001 (iv), vehicle: other) was 101 % of control. For the same molecule, the T/C (dose: 50.0 micrograms/kg/injection, schedule: Q01DX005 (ip), vehicle: other) was 118 % of control and 120 % of control, the T/C (dose: 50.0 micrograms/kg/injection, schedule: Q01DX005 (iv), vehicle: other) was 98 % of control and 103 % of control and the T/C (dose: 50.0 micrograms/kg/injection, schedule: Q04DX002 (ip), vehicle: other) was 109 % of control. For the same molecule, the T/C (dose: 50.0 micrograms/kg/injection, schedule: Q04DX002 (iv), vehicle: other) was 100 % of control, the T/C (dose: 50.0 micrograms/kg/injection, schedule: Q12HX004 (ip), vehicle: other) was 113 % of control and the T/C (dose: 50.0 micrograms/kg/injection, schedule: Q12HX004 (iv), vehicle: other) was 104 % of control. For the same molecule, the T/C (dose: 50.0 micrograms/kg/injection, schedule: Q12HX010 (iv), vehicle: other) was 101 % of control, the T/C (dose: 100.0 micrograms/kg/injection, schedule: Q01DX001 (ip), vehicle: other) was 100 % of control and the T/C (dose: 100.0 micrograms/kg/injection, schedule: Q01DX001 (iv), vehicle: other) was 100 % of control. The T/C (dose: 100.0 micrograms/kg/injection, schedule: Q01DX005 (iv), vehicle: other) was 101 % of control, the T/C (dose: 100.0 micrograms/kg/injection, schedule: Q03HX020 (ip), vehicle: other) was 161 % of control and the T/C (dose: 100.0 micrograms/kg/injection, schedule: Q04DX002 (ip), vehicle: other) was 110 % of control. For the same molecule, the T/C (dose: 100.0 micrograms/kg/injection, schedule: Q04DX002 (iv), vehicle: other) was 101 % of control, the T/C (dose: 100.0 micrograms/kg/injection, schedule: Q12HX004 (ip), vehicle: other) was 124 % of control and the T/C (dose: 100.0 micrograms/kg/injection, schedule: Q12HX010 (iv), vehicle: other) was 102 % of control. The T/C (dose: 200.0 micrograms/kg/injection, schedule: Q01DX001 (ip), vehicle: other) was 103 % of control, the T/C (dose: 200.0 micrograms/kg/injection, schedule: Q03HX008 (ip), vehicle: other) was 120 % of control and the T/C (dose: 200.0 micrograms/kg/injection, schedule: Q12HX010 (ip), vehicle: other) was 153 % of control. For the same molecule, the T/C (dose: 400.0 micrograms/kg/injection, schedule: Q01DX001 (ip), vehicle: other) was 111 % of control and the T/C (dose: 800.0 micrograms/kg/injection, schedule: Q01DX001 (ip), vehicle: other) was 114 % of control.
